Laboratory results reported in publication doi:10.1101/2024.08.19.608619, “Discovery of potent SARS-CoV-2 nsp3 macrodomain inhibitors uncovers lack of translation to cellular antiviral response” (bioRxiv, 2024).
Where “and” joins values, the source holds several entries; their conditions need not be identical. Identical values can stand only once. Like-named read-outs stand apart in the source and are kept apart here.

Key:
[1] = test system: SARS-CoV-2, isolate USA-WA1/2020; test: microbe, parasite or virus in culture; type: cell-based; details: HeLa-ACE2 SARS-CoV-2 antiviral effect without P-gp inhibitor; for EC50: read-out: ec50; for EC90: read-out: ec90
[2] = Hepatic microsomal stability, HLM; type: in vitro ADME, human; details: In vitro human liver microsomal stability; for perc_remaining_no_cofactor: no cofactor
[3] = Hepatic microsomal stability, MLM; type: in vitro ADME; details: In vitro mouse liver microsomal stability; for perc_remaining_no_cofactor: no cofactor
[4] = In vitro human hepatocyte stability; type: in vitro ADME
From the text: Supplement media-1.zip/Hepatocyte_Stability.csv, table | column: clint; t_half

[5] = Protein binding; type: in vitro ADME
From the text: Supplement media-1.zip/Protein_Binding.csv, table | column: fu; perc_bound; perc_free; perc_recovered

[6] = target: T1, 5-HT2A (h) (Homo sapiens, UniProt P28223); test: In vitro CEREP profiling, 5-HT2A (h) (agonist radioligand); type: binding; details: test compound concentration 10 uM
T1 construct: purchased Eurofins Cerep (SafetyScreen44), recognised from the panel format
T1 sequence (P28223 whole entry): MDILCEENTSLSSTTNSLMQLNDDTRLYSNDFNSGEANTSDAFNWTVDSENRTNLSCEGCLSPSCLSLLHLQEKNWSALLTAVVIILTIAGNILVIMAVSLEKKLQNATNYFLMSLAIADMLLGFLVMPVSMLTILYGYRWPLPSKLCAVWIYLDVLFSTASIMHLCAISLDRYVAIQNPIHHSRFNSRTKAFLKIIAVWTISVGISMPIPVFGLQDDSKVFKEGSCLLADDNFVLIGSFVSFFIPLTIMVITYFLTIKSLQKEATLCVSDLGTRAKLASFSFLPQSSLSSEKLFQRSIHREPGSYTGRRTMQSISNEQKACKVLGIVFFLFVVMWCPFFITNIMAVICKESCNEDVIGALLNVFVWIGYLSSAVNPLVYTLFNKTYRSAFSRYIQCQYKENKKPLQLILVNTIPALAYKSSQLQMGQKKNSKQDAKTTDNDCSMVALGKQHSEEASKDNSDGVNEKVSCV
From the text: (§1) Supplement media-1.zip/Safety_Panel_Profile.csv, table | column: perc_inhibition

[7] = target: T2, 5-HT2B (h) (Homo sapiens, UniProt P41595); test: In vitro CEREP profiling, 5-HT2B (h) (agonist radioligand); type: binding; details: test compound concentration 10 uM
T2 construct: purchased Eurofins Cerep (SafetyScreen44), recognised from the panel format
T2 sequence (P41595 whole entry): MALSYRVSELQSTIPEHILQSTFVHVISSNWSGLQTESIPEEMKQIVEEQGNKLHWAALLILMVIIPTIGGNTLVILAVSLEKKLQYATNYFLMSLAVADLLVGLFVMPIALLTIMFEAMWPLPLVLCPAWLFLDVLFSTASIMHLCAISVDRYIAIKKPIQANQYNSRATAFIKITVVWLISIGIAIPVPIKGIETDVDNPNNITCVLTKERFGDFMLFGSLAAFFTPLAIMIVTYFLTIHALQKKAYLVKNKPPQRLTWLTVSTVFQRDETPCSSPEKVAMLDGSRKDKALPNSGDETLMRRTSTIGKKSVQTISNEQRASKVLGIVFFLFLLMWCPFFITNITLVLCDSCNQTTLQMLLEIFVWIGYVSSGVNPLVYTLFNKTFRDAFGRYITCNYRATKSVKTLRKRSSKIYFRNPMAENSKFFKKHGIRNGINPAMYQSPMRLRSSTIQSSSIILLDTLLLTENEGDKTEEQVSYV
From the text: as §1

[8] = target: T3, COX2(h) (Homo sapiens, UniProt P35354); test: In vitro CEREP profiling, COX2(h); type: biochemical; details: test compound concentration 10 uM; Enzyme and Cell-based assays
T3 construct: purchased Eurofins Cerep (SafetyScreen44), recognised from the panel format
T3 sequence (P35354 18-604): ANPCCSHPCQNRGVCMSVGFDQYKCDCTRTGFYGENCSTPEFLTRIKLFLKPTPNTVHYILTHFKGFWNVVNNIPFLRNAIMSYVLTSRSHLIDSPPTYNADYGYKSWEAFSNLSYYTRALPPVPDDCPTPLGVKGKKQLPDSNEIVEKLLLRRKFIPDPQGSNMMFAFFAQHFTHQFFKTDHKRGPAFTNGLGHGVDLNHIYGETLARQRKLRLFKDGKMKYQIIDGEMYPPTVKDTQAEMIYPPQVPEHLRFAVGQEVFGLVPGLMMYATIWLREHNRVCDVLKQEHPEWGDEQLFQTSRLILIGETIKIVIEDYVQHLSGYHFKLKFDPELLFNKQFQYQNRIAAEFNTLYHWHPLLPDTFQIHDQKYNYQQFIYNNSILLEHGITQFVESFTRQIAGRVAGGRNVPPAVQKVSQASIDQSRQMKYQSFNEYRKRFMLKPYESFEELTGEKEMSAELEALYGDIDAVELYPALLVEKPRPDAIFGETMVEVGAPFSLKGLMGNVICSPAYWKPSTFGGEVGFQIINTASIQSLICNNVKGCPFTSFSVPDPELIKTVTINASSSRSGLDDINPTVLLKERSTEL
From the text: as §1

[9] = target: T4, beta1 (h) (Homo sapiens, UniProt P08588); test: In vitro CEREP profiling, beta1 (h) (agonist radioligand); type: binding; details: test compound 10 uM
T4 construct: purchased Eurofins Cerep (SafetyScreen44), recognised from the panel format
T4 sequence (P08588 whole entry): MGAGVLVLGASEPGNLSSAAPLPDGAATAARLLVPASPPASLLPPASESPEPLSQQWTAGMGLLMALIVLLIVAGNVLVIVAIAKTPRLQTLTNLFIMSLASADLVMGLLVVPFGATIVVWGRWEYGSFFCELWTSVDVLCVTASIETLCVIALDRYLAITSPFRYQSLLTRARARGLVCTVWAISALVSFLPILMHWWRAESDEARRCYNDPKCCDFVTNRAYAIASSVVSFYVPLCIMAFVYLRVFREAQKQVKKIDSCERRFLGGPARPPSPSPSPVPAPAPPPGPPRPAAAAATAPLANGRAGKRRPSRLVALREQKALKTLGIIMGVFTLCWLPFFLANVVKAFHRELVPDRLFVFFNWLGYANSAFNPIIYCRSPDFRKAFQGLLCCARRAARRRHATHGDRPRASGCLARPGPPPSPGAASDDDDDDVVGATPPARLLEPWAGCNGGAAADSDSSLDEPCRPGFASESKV
From the text: as §1

[10] = target: T5, Potassium Channel hERG (human) (Homo sapiens, UniProt Q12809); test: In vitro CEREP profiling, Potassium Channel hERG (human)- [3H] Dofetilide; type: binding; details: test compound concentration 10 uM
T5 construct: purchased Eurofins Cerep (SafetyScreen44), recognised from the panel format
T5 sequence (Q12809 whole entry): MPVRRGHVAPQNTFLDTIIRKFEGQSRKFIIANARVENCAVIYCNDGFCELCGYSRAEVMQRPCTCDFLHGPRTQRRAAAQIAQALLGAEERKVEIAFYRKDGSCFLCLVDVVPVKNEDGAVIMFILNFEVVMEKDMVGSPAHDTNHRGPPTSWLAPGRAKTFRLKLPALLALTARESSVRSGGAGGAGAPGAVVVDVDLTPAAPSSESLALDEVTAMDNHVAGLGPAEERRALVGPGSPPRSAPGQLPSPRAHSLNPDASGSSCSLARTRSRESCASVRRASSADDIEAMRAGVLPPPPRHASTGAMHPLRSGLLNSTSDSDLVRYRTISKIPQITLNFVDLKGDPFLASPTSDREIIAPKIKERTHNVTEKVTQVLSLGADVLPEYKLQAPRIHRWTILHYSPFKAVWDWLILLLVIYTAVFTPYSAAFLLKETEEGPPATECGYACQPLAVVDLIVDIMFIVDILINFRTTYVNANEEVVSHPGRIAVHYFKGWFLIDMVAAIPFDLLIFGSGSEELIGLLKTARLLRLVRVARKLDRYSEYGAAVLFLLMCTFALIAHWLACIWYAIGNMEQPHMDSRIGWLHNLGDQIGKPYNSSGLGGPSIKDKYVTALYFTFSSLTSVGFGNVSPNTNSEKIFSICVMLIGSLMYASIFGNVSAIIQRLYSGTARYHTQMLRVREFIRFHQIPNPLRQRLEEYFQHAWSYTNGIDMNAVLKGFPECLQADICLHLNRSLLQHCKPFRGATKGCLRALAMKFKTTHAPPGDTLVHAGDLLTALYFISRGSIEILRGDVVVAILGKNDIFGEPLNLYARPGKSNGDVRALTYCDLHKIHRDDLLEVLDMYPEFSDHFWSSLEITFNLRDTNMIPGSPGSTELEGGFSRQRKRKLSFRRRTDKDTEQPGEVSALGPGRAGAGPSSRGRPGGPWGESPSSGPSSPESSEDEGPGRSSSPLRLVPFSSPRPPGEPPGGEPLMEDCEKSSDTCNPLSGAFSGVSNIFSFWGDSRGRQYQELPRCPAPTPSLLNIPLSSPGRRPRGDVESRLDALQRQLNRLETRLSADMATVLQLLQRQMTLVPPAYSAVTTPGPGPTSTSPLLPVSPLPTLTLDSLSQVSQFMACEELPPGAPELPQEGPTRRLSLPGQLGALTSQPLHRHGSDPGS
From the text: as §1

[11] = target: T6, D1 (h) (Homo sapiens, UniProt P21728); test: In vitro CEREP profiling, D1 (h) (antagonist radioligand); type: binding; details: test compound 10 uM
T6 construct: purchased Eurofins Cerep (SafetyScreen44), recognised from the panel format
T6 sequence (P21728 whole entry): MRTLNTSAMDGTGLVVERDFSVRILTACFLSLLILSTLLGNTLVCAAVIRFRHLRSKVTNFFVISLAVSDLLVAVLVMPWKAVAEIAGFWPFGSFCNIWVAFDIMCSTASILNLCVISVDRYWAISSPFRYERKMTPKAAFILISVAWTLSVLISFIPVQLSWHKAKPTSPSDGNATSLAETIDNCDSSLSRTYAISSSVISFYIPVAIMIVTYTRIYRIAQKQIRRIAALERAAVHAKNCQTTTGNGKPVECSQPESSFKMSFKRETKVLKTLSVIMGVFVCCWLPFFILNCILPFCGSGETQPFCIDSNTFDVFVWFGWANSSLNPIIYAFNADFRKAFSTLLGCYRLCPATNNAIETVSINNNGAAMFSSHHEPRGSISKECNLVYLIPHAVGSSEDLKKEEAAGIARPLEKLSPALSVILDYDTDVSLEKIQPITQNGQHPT
From the text: as §1

[12] = target: T7, D2S (h) (Homo sapiens, UniProt P14416); test: In vitro CEREP profiling, D2S (h) (agonist radioligand); type: binding; details: test compound 10 uM
T7 construct: purchased Eurofins Cerep (SafetyScreen44), recognised from the panel format
T7 sequence (P14416 1-414 isoform P14416-2): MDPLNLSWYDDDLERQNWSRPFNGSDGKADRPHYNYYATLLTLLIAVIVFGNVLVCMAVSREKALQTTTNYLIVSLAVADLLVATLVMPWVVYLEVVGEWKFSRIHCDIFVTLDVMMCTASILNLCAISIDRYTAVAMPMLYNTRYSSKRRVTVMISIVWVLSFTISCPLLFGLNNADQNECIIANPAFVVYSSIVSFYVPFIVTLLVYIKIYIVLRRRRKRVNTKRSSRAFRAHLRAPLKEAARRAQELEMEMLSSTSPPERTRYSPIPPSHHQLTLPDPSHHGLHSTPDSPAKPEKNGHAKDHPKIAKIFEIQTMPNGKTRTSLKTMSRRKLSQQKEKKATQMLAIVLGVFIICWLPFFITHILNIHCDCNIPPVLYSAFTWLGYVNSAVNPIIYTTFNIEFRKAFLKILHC
From the text: as §1

[13] = target: T8, norepinephrine transporter (h) (Homo sapiens, UniProt P23975); test: In vitro CEREP profiling, norepinephrine transporter (h) (antagonist radioligand); type: binding; details: test compound concentration 10 uM
T8 construct: purchased Eurofins Cerep (SafetyScreen44), recognised from the panel format
T8 sequence (P23975 whole entry): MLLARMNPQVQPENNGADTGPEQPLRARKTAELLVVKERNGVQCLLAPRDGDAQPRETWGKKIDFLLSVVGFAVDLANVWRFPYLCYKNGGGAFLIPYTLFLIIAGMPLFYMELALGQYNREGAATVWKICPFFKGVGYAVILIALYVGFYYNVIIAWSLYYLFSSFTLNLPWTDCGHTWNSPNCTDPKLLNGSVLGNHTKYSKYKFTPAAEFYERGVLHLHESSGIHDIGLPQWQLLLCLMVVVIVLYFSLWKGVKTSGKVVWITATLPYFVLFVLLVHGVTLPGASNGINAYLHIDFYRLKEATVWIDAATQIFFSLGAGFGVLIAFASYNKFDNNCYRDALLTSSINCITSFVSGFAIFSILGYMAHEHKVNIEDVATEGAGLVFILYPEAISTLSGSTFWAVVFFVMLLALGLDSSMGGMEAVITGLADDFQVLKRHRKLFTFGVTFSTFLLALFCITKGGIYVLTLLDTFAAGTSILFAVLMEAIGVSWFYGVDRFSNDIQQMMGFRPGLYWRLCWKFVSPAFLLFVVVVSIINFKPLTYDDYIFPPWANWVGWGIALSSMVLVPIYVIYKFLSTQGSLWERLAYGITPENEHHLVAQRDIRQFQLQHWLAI
From the text: as §1

[14] = target: CDK6/cyclinD3(h) (Homo sapiens, UniProt Q00534); test: biochemical; design: In vitro kinase panel profiling, per cent remaining kinase activity at 10 uM; details: atp_concentration=200, read-out: % of control remaining
Chain of CDK6/cyclinD3(h) (Q00534 whole entry): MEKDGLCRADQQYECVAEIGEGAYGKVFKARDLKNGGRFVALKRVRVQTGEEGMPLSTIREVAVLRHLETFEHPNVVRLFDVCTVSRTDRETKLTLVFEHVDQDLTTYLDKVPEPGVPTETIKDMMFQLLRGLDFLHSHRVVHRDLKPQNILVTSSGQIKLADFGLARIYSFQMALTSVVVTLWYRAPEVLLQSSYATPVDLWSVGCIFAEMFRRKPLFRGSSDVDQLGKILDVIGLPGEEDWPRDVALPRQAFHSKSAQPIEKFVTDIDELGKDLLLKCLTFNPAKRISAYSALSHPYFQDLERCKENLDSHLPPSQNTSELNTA
Chain of CDK6/cyclinD3(h) (P30281 whole entry partner): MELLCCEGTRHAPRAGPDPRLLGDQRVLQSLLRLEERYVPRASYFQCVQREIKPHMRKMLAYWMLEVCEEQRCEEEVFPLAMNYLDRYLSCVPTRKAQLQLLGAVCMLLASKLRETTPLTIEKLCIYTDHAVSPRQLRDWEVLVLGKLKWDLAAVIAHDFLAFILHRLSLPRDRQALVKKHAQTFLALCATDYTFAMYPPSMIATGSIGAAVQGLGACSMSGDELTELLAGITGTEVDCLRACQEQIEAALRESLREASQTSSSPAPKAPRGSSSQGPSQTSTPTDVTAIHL
From the text: (§2) We derisk potential for off-target activity by profiling the compound in a CEREP panel, a standard secondary pharmacology assessment, as well as a kinase panel to derisk a potential hinge-binding motif in our leads, and a PARP panel to derisk activity against human […]. Reassuringly, the compounds are selective, with the only off-targets being moderate human CHRM2 and KOR receptors activity associated with ASAP-0011198.

[15] = target: T9, PKCα(h) (Homo sapiens, UniProt P17252); test: biochemical; design: In vitro kinase panel profiling, per cent remaining kinase activity at 10 uM; details: atp_concentration=45, read-out: % of control remaining
T9 construct: gene PRKCA
From the text: as §2

[16] = maximum measured response of dose series
[17] = minimum measured response of dose series
[18] = In vitro dog plasma protein binding
[19] = In vitro fetal calf serum protein binding
[20] = In vitro human plasma protein binding
[21] = In vitro mouse plasma protein binding
[22] = In vitro rat plasma protein binding

Compound `CC(C)[C@H](Nc1ncnc2[nH]ccc12)c1ccc2c(c1)S(=O)(=O)CCC2` [ASAP-0008674] has a perc_max_measured ([1]; maximum measured response) of 158.705%, a perc_max_measured [1, 16] of 129.029% and a perc_min_measured ([1]; minimum measured response) of 84.767%. The perc_min_measured [1, 17] was 103.942%, the EC50 [1] was > 20 µM and the EC90 [1] was > 20 µM. The clint [2] was 57.0 µL/min/mg, the perc_remaining [2] was 37.0% and the t_half [2] was 29.5 min. For the same compound, the perc_remaining_no_cofactor [2] was 92.0%, the clint [3] was 207.0 µL/min/mg and the perc_remaining [3] was 3.0%. For the same compound, the t_half [3] was 8.1 min, the perc_remaining_no_cofactor [3] was 104.0% and the clint [4] was 27.9 uL/min/1E6 cells. The t_half [4] was 24.8 min, the fu [5, 18] was 0.148 and the perc_bound [5, 18] was 85.2%. It also gave a perc_free [5, 18] of 14.8%, a perc_recovered [5, 18] of 97.58% and a fu [5, 19] of 0.095. For the same compound, the perc_bound [5, 19] was 90.5%, the perc_free [5, 19] was 9.5% and the perc_recovered [5, 19] was 94.23%. It also gave a fu [5, 20] of 0.144, a perc_bound [5, 20] of 85.6% and a perc_free [5, 20] of 14.4%. The perc_recovered [5, 20] was 95.79%, the fu [5, 21] was 0.124 and the perc_bound [5, 21] was 87.6%. For the same compound, the perc_free [5, 21] was 12.4%, the perc_recovered [5, 21] was 89.46% and the fu [5, 22] was 0.189. The perc_bound [5, 22] was 81.1%, the perc_free [5, 22] was 18.9% and the perc_recovered [5, 22] was 91.14%. The “perc_inhibition (% inhibition of the binding of a ligand specific for each target)” value [6] was 12%, the “perc_inhibition (% inhibition of the binding of a ligand specific for each target)” value [7] was 54% and the “perc_inhibition: % inhibition of control enzyme activity, COX2(h)” value (“perc_inhibition: % inhibition” below) [8] was 23%. The “perc_inhibition (% inhibition of the binding of a ligand specific for each target)” value [9] was 11%, the “perc_inhibition (% inhibition of the binding of a ligand specific for each target)” value [10] was 20% and the “perc_inhibition (% inhibition of the binding of a ligand specific for each target)” value [11] was -4%. For the same compound, the “perc_inhibition (% inhibition of the binding of a ligand specific for each target)” value [12] was -14%, the “perc_inhibition (% inhibition of the binding of a ligand specific for each target)” value [13] was -3% and the remaining activity at 10 µM ([14]; batch_name=ASAP-0008674-002) was 105%. It also gave a remaining activity at 10 µM ([15]; batch_name=ASAP-0008674-002) of 98%.
Work on `CC(C)[C@H](Nc1ncnc2[nH]c(-c3cnn(C)c3C#N)cc12)c1ccc2c(n1)OCCO2` [ASAP-0010715] yielded a perc_max_measured ([1]; maximum measured response) of 105.242%, a perc_max_measured [1, 16] of 125.33% and a perc_min_measured ([1]; minimum measured response) of 1.508%. For the same compound, the perc_min_measured [1, 17] was 4.425%, the EC50 [1] was 0.508 µM and 0.819 µM and the EC90 [1] was 1.96 µM and 3.36 µM. The clint [2] was 17.0 µL/min/mg, the perc_remaining [2] was 78.0% and the t_half [2] was 100.0 min. It also gave a perc_remaining_no_cofactor [2] of 116.0%, a clint [4] of 28.7 uL/min/1E6 cells and a t_half [4] of 24.2 min. It also gave a fu [5, 18] of 0.042, a perc_bound [5, 18] of 95.8% and a perc_free [5, 18] of 4.24%. It also gave a perc_recovered [5, 18] of 87.48%, a fu [5, 19] of 0.072 and a perc_bound [5, 19] of 92.8%. For the same compound, the perc_free [5, 19] was 7.24%, the perc_recovered [5, 19] was 89.85% and the fu [5, 20] was 0.005. For the same compound, the perc_bound [5, 20] was 99.5%, the perc_free [5, 20] was 0.541% and the perc_recovered [5, 20] was 113.8%. For the same compound, the fu [5, 21] was 0.026, the perc_bound [5, 21] was 97.4% and the perc_free [5, 21] was 2.56%. It also gave a perc_recovered [5, 21] of 93.63%, a fu [5, 22] of 0.02 and a perc_bound [5, 22] of 98.0%. The perc_free [5, 22] was 2.04%, the perc_recovered [5, 22] was 97.27% and the “perc_inhibition (% inhibition of the binding of a ligand specific for each target)” value [6] was 15%. The “perc_inhibition (% inhibition of the binding of a ligand specific for each target)” value [7] was 18%, the “perc_inhibition: % inhibition” value [8] was -2% and the “perc_inhibition (% inhibition of the binding of a ligand specific for each target)” value [9] was 11%. The “perc_inhibition (% inhibition of the binding of a ligand specific for each target)” value [10] was 29%, the “perc_inhibition (% inhibition of the binding of a ligand specific for each target)” value [11] was 27% and the “perc_inhibition (% inhibition of the binding of a ligand specific for each target)” value [12] was -7%. For the same compound, the “perc_inhibition (% inhibition of the binding of a ligand specific for each target)” value [13] was 9% and the remaining activity at 10 µM ([14]; batch_name=ASAP-0010715-002) was 102%.
`Cn1ncc(-c2cc3c(N[C@@H](c4ccc5c(n4)OCCO5)C(C)(C)C)ncnc3[nH]2)c1C#N` [ASAP-0011221] gave a perc_max_measured ([1]; maximum measured response) of 101.751%, a perc_max_measured [1, 16] of 108.122% and a perc_min_measured ([1]; minimum measured response) of 4.671%. The perc_min_measured [1, 17] was 8.006%, the EC50 [1] was 1.49 µM and 1.6 µM and the EC90 [1] was > 20 µM. The clint [2] was 283.0 µL/min/mg, the perc_remaining [2] was 1.0% and the t_half [2] was 5.9 min. For the same compound, the perc_remaining_no_cofactor [2] was 85.0%, the clint [3] was 226.0 µL/min/mg and the perc_remaining [3] was 2.0%. For the same compound, the t_half [3] was 7.4 min, the perc_remaining_no_cofactor [3] was 94.0% and the clint [4] was 171.0 uL/min/1E6 cells. For the same compound, the t_half [4] was 4.04 min, the fu [5, 18] was 0.012 and the perc_bound [5, 18] was 98.8%. It also gave a perc_free [5, 18] of 1.2%, a perc_recovered [5, 18] of 99.93% and a fu [5, 19] of 0.021. The perc_bound [5, 19] was 97.9%, the perc_free [5, 19] was 2.13% and the perc_recovered [5, 19] was 99.13%. For the same compound, the fu [5, 20] was 0.006, the perc_bound [5, 20] was 99.4% and the perc_free [5, 20] was 0.571%. It also gave a perc_recovered [5, 20] of 99.19%, a fu [5, 21] of 0.011 and a perc_bound [5, 21] of 98.9%. The perc_free [5, 21] was 1.06%, the perc_recovered [5, 21] was 98.18% and the fu [5, 22] was 0.018. It also gave a perc_bound [5, 22] of 98.2%, a perc_free [5, 22] of 1.83% and a perc_recovered [5, 22] of 90.47%. The “perc_inhibition (% inhibition of the binding of a ligand specific for each target)” value [6] was -2%, the “perc_inhibition (% inhibition of the binding of a ligand specific for each target)” value [7] was -5% and the “perc_inhibition: % inhibition” value [8] was -9%. For the same compound, the “perc_inhibition (% inhibition of the binding of a ligand specific for each target)” value [9] was 11%, the “perc_inhibition (% inhibition of the binding of a ligand specific for each target)” value [10] was 36% and the “perc_inhibition (% inhibition of the binding of a ligand specific for each target)” value [11] was 9%. The “perc_inhibition (% inhibition of the binding of a ligand specific for each target)” value [12] was 13%, the “perc_inhibition (% inhibition of the binding of a ligand specific for each target)” value [13] was 27% and the remaining activity at 10 µM ([15]; batch_name=ASAP-0011221-002) was 87%.
